Measurements published in patent US20070025914A1, “Bronchioalveolar stem cells and uses thereof” (priority 2005, published 2007).
Several values for one entry are separate records, joined by “and”; a condition that tells them apart may be missing. Identical values can stand only once.

Assays:
BASCs [1] = test: BASC incidence after intranasal bleomycin; format: in vivo, mouse
Experimental: Bleomycin is administered intranasally, and at various time points after treatment, the incidence of BASCs is determined.

[2] = tested on: BASCs (Sca-1pos CD45neg Pecamneg cells); test: FACS analysis of BASC abundance after naphthalene treatment; format: in vivo, mouse
BASCs [3] = test: BrdU proliferation at the BADJ after naphthalene; format: in vivo, mouse; details: all SP-Cpos CCApos
Lox-K-ras lung tumors = test: Naphthalene treatment before AdCre in LSL-K-ras G12D mice: tumor number and area; format: in vivo, mouse; details: 6 weeks, three independent experiments, p=0.04
Experimental: We reasoned that the cellular requirements for adenocarcinoma formation could be dissected further by combining K-ras G12D activation with naphthalene treatment, which stimulates proliferation of BASCs in vivo (see FIG. 2). LSL-K-ras G12D mice and wild-type controls were treated with naphthalene; tumorigenesis was initiated by administering AdCre 24 hr to 3 days later, and mice were euthanized after 6 weeks to determine tumor incidence and size.
An even greater impact on tumor area was associated with naphthalene treatment; adenomas comprised a 6-, 12-, and 15-fold greater proportion of total lung area when initiated after airway damage in the three experiments (p=0.009; FIG. 7B).

AT2 cells = test: AdGFP infection followed by IF for SP-C or CCA after naphthalene; format: in vivo, mouse; details: 24 hr after AdGFP; control 7.8%; no significant increase
From the text: FIG. 7A). An even greater impact on tumor area was associated with naphthalene treatment; adenomas comprised a 6-, 12-, and 15-fold greater proportion of total lung area when initiated after airway damage in the three experiments (p=0.009; FIG. 7B).

BASCs [4] = test: BASC number per terminal bronchiole by dual IF for CCA and SP-C after naphthalene treatment
Experimental: To determine if airway damage affects BASCs, dual IF for CCA and SP-C is performed at various time points after naphthalene treatment. […] BrdU administered prior to euthanasia is used to determine if BASCs proliferate in response to naphthalene.
Lox-stop-lox K-ras G12D mice (Jackson et al. (2001) Genes Dev. 15, 3243-3248) and wild-type littermates were maintained in viral-free conditions on an F1 129 SvJ/C57BI6 background. Four- to eight-week-old mice were used for FACS or intranasal infections as described (Jackson et al. (2001) Genes Dev. 15, 3243-3248). Naphthalene (Aldrich) was dissolved in MAZOLA corn oil and injected i.p. at 275 mg/kg using sex- and background-matched control mice. […] 30 mg/kg BrdU in PBS was injected i.p. 2 hr before euthanasia for proliferation studies. Tissue preparation was as described (Jackson et al., 2001, supra). BASCs were quantified by scoring sections from at least three mice for each condition.

Compound	BASC distribution (BASCs [1]; 7 days after bleomycin)	BASC numbers (BASCs [1]; 14 days after bleomycin, p=0.01)	BASC distribution (BASCs [1]; 28 days after bleomycin)	abundance of BASCs, fold increase vs corn oil control ([2]; 1 week after treatment, p=0.04) [fold]	abundance of BASCs ([2]; 24 hr after naphthalene)	time at which BrdUpos cells are first detected in the BADJ (BASCs [3]) [h]	fold more tumors vs controls (corn oil, AdCre) (Lox-K-ras lung tumors)	infected (GFPpos) cells that were SP-Cpos (AT2 cells) [%]	terminal bronchioles with two or more BASCs (BASCs [4]; 1 week after naphthalene 275 mg/kg i.p., controls 16%±5%, p=0.03)	number of BASCs after naphthalene (BASCs [4]; any time point after naphthalene)	Clara cell loss (BASCs [4]; by 52 hr after naphthalene)	number of BASCs per BADJ (BASCs [4]; six to seven weeks after naphthalene)
Bleomycin	significantly different neither	Significant increases	significantly different neither									
c1ccc2ccccc2c1 [naphthalene, Naphthalene]				1.3	did not change	52	1.3 fold and 2.2 fold and 2.3 fold	10.5	30%±9%	did not significantly decrease	significant Clara cell loss	comparable to that in untreated lung
